ChEMBL document CHEMBL1201862, “PubChem BioAssay data set” (2004)
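A five-concentration, 48-hour dose response in 96-well plates underlies each endpoint, interpolated linearly between surrounding concentrations. Here, GI50 denotes the concentration required for 50% inhibition of growth.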 Calls of active or inactive are those of the source. Rule as the data show it: active = GI50 up to about 1.1 µM and inactive = higher.

Experiments:
Assay in all cases: growth of human tumour cells (NCI), 48 h
COLO 205 = tested on: COLO 205
Malme-3M = tested on: Malme-3M
SK-MEL-28 = tested on: SK-MEL-28
HT-29 = tested on: HT-29
NCI/ADR-RES = tested on: NCI/ADR-RES
EKVX = tested on: EKVX
NCI-H522 = tested on: NCI-H522
SF-295 = tested on: SF-295
A498 = tested on: A498
HCT-15 = tested on: HCT-15
UACC-257 = tested on: UACC-257
IGROV-1 = tested on: IGROV-1
SW-620 = tested on: SW-620
PC-3 = tested on: PC-3
HCT-116 = tested on: HCT-116
MDA-MB-435 = tested on: MDA-MB-435
SK-MEL-5 = tested on: SK-MEL-5
OVCAR-4 = tested on: OVCAR-4
MDA-MB-231 = tested on: MDA-MB-231
CAKI-1 = tested on: CAKI-1

SMILES	GI50 (COLO 205)	GI50 (Malme-3M)	GI50 (SK-MEL-28)	GI50 (HT-29)	GI50 (NCI/ADR-RES)	GI50 (EKVX)	GI50 (NCI-H522)	GI50 (SF-295)	GI50 (A498)	GI50 (HCT-15) [µM]	GI50 (UACC-257)	GI50 (IGROV-1)	GI50 (SW-620)	GI50 (PC-3)	GI50 (HCT-116)	GI50 (MDA-MB-435)	GI50 (SK-MEL-5)	GI50 (OVCAR-4)	GI50 (MDA-MB-231)	GI50 (CAKI-1)
O=S(=O)(N/C(=N\O)Nc1ccc(Cl)cc1)c1ccc(S(=O)(=O)c2ccccc2)s1	15.7 µM (inactive)	19.4 µM (inactive)	17.7 µM (inactive)	22.3 µM (inactive)	27.5 µM (inactive)	18.8 µM (inactive)	16.9 µM (inactive)	26.5 µM (inactive)	15.5 µM (inactive)	28.1	16 µM (inactive)	15.2 µM (inactive)	30.1 µM (inactive)	25.9 µM (inactive)	16.7 µM (inactive)	17 µM (inactive)	11.2 µM (inactive)	14.1 µM (inactive)	22.3 µM (inactive)	21.4 µM (inactive)
O=c1[nH]ncc2[nH]c3c(c12)CCc1ccccc1-3	13.2 µM (inactive)	32.9 µM (inactive)	39.9 µM (inactive)	29.9 µM (inactive)	40.4 µM (inactive)	2.22 µM (inactive)	21.5 µM (inactive)	37.8 µM (inactive)	27.7 µM (inactive)	30.8	45.6 µM (inactive)	14.7 µM (inactive)	34.4 µM (inactive)	27.2 µM (inactive)	24.7 µM (inactive)	24.9 µM (inactive)	11 µM (inactive)	32.1 µM (inactive)	37.9 µM (inactive)	21.5 µM (inactive)
CC1C=C(NCC2(CO)CCC2)N=C(N)N1 (stereo not given)	> 100 µM (inactive)	> 100 µM (inactive)	> 100 µM (inactive)	> 100 µM (inactive)	> 100 µM (inactive)	> 100 µM (inactive)	> 100 µM (inactive)	> 100 µM (inactive)	91.6 µM (inactive)	> 100	> 100 µM (inactive)	> 100 µM (inactive)	> 100 µM (inactive)	> 100 µM (inactive)	> 100 µM (inactive)	> 100 µM (inactive)	> 100 µM (inactive)	> 100 µM (inactive)	> 100 µM (inactive)	> 100 µM (inactive)
O=C1CC(c2cccc([N+](=O)[O-])c2)C2(C(=O)NC(=S)NC2=O)C(c2cccc([N+](=O)[O-])c2)C1 (stereo not given)	24.4 µM (inactive)	11.6 µM (inactive)	52.8 µM (inactive)	40.9 µM (inactive)	> 100 µM (inactive)	20.4 µM (inactive)	30 µM (inactive)	34 µM (inactive)	> 100 µM (inactive)	25.5	89.7 µM (inactive)	31.3 µM (inactive)	50.7 µM (inactive)	51.6 µM (inactive)	18.7 µM (inactive)	23.5 µM (inactive)	82.2 µM (inactive)	37.4 µM (inactive)	16.6 µM (inactive)	12.9 µM (inactive)
